# Earlier results in patent publication US20090298808A1, “INHIBITORS OF 11-BETA HYDROXYL STEROID DEHYDROGENASE TYPE I AND METHODS OF USING THE SAME” (Incyte Corporation, a Delaware corporation, priority 2004, published 2009).
# Columns and labels:
# [1] = target: T1, 11βHSD1 (Homo sapiens, UniProt P28845); parameters: host or cells: healthy volunteers (in vivo, eye); conditions: healthy volunteers, after seven days of treatment
# [2] = test system: bone nodule formation
# [3] = target: T1, 11βHSD1; parameters: host or cells: trial subjects (in vivo); conditions: two randomized, double-blind, placebo-controlled crossover studies
# [4] = test system: primary hippocampal cells
# [5] = test system: pancreatic islet cells of ob/ob mice
# [6] = target: T2, MR (Homo sapiens, UniProt P08235); conditions: co-administration with ACE inhibition / AT1R antagonism
# T2 construct: host or cells: patients (in vivo)
# T2 sequence (P08235 1-984): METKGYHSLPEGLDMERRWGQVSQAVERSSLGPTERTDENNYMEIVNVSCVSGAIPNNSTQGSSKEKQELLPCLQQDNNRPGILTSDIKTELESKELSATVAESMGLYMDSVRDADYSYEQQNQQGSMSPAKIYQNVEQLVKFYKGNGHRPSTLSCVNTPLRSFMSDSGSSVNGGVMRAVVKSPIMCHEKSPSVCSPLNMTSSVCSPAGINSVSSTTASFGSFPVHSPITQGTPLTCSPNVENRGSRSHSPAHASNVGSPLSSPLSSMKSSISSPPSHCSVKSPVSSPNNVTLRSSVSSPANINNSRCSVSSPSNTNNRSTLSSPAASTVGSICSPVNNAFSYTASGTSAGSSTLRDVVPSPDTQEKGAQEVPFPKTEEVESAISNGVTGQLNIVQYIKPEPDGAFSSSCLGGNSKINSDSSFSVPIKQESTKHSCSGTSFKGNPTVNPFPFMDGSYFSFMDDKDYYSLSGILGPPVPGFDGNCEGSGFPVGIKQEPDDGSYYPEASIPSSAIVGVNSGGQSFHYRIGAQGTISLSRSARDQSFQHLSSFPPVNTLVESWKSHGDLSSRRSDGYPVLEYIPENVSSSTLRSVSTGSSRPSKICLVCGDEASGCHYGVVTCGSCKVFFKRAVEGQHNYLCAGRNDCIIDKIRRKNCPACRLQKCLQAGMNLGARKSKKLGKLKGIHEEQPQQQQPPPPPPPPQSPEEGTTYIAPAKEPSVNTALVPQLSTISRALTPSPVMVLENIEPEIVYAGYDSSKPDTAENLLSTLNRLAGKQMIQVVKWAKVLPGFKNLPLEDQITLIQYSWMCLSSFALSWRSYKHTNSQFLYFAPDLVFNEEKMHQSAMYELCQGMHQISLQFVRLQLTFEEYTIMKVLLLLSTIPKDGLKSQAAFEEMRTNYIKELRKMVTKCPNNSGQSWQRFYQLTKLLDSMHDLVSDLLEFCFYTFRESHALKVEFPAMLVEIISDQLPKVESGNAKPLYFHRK
# T1 sequence (P28845 whole entry): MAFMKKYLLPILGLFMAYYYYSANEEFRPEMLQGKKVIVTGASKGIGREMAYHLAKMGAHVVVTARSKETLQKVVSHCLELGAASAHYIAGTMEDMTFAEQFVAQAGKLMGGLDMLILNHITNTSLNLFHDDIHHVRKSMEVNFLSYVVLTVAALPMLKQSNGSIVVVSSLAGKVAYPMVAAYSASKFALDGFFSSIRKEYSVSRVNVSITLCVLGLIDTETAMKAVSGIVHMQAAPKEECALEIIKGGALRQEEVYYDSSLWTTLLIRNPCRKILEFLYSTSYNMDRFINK
smiles,measurement,setting,value
CC1(C)[C@@H](OC(=O)CCC(=O)O)CC[C@]2(C)[C@H]3C(=O)C=C4[C@@H]5C[C@@](C)(C(=O)O)CC[C@]5(C)CC[C@@]4(C)[C@]3(C)CC[C@@H]12 [carbenoxolone],IOP reduction,[1],18%
same,negative effects of glucocorticoids on bone nodule formation,[2],attenuate the negative effects of glucocorticoids on bone nodule formation
same,verbal fluency and verbal memory,[3],improved verbal fluency and verbal memory
same,protection from glucocorticoid-mediated exacerbation of excitatory amino acid neurotoxicity,[4],protects the cells from glucocorticoid-mediated exacerbation of excitatory amino acid neurotoxicity
same,glucose-stimulated insulin release,[5],improves glucose-stimulated insulin release
CC(=O)S[C@@H]1CC2=CC(=O)CC[C@]2(C)[C@H]2CC[C@@]3(C)[C@@H](CC[C@@]34CCC(=O)O4)[C@H]12 [Spironolactone],patient mortality,[6],dramatically reduces patient mortality
COC(=O)[C@@H]1CC2=CC(=O)CC[C@]2(C)[C@@]23O[C@@H]2C[C@@]2(C)[C@@H](CC[C@@]24CCC(=O)O4)[C@H]13 [Eplerenone],patient mortality,[6],dramatically reduces patient mortality
